Source: paper PMC2074348, “Preclinical in vivo efficacy of two 9-dihydrotaxane analogues against human and murine tumours” (British Journal of Cancer, 1996)
In brackets after ≈: the same amount, converted by molar mass. Like-named read-outs stand apart in the source and are kept apart here.

Experiments:
[1] = tested on: murine B16F10 melanoma ascites tumour; assay: In vivo efficacy vs i.p. B16F10 melanoma ascites tumour; details: for %ILS (group mean increase in lifespan) / MST (mean survival time ± s.d.) / Per cent toxicity (mice with premature death) / Per cent cures (mice alive 60 days after inoculation): q.d., i.p., days 1-5 after inoculation, BDF1 mice
[2] = tested on: A549; assay: In vitro tumour cell cytotoxicity, colorimetric MTT assay, 72 h; assay type: cell-based, human; details: Homo sapiens, 72 h exposure, read-out: IC50
[3] = tested on: ovarian tumours; parameters: method as in McGuire et al., 1989; details: ovarian tumours that had failed cisplatinum therapy; ref McGuire et al., 1989; cited from earlier work
[4] = tested on: BDF mice bearing B16F10 ascites tumours; details: maximum dose yielding <20% lethality following five i.p. doses once daily
[5] = mouse, in vivo, ip, 20 mg/kg
[6] = tested on: breast tumour; parameters: method as in Holmes et al., 1991; details: breast tumour patients who had failed one previous course of chemotherapy; ref Holmes et al., 1991; cited from earlier work
[7] = in vivo; details: male, CD-1, mouse, ip, 20 mg/kg
[8] = tested on: P388; assay: In vitro tumour cell cytotoxicity, colorimetric MTT assay, 72 h; assay type: cell-based, murine; details: Mus musculus, 72 h exposure, read-out: IC50
[9] = tested on: HT-29; assay: as above; assay type: cell-based, human; details: Homo sapiens, 72 h exposure, read-out: IC50
[10] = tested on: murine M109 solid tumour; assay: In vivo efficacy vs subcutaneous M109 solid tumour
[11] = tested on: human MX-1 xenograft solid tumour; details: for Delay (1.0 g) (footnote: delay to reach mean tumour mass = 0.5 g, compared with untreated) / Per cent cures (mice with no palpable tumours, day 60) / Per cent toxicity / TWI (per cent tumour weight inhibition when untreated control mean = 0.5 g): q.d., i.p., days 1-5 after inoculation, s.c. xenograft
[12] = tested on: B16F10; assay: In vitro tumour cell cytotoxicity, colorimetric MTT assay, 72 h; assay type: cell-based, murine; details: Mus musculus, B16-F10, 72 h exposure, read-out: IC50
[13] = at non-toxic doses, i.p. once daily for 5 consecutive days
[14] = dose 6.25 mg kg-1 per day, q.d., i.p., days 1, 5, 9 after inoculation, s.c. tumour, BDF1 mice
[15] = dose 12.5 mg kg-1 per day, q.d., i.p., days 1, 5, 9 after inoculation, s.c. tumour, BDF1 mice
[16] = dose 25 mg kg-1 per day, q.d., i.p., days 1, 5, 9 after inoculation, s.c. tumour, BDF1 mice
[17] = dose 6.25 mg kg-1 per day, nude mice
[18] = dose 12.5 mg kg-1 per day, nude mice
[19] = dose 25 mg kg-1 per day, nude mice
[20] = once daily on days 1-5 after inoculation

## CC(=O)O[C@H]1C(=O)[C@@]2(C)[C@H]([C@H](OC(=O)c3ccccc3)[C@]3(O)C[C@H](OC(=O)[C@H](O)[C@@H](NC(=O)c4ccccc4)c4ccccc4)C(C)=C1C3(C)C)[C@]1(OC(C)=O)CO[C@@H]1C[C@@H]2O [Paclitaxel, reference compound]
[1]; [13]
  Cure rate at optimal non-toxic dose: 0%
  Optimal increase in life span (ILS): 96%
[1]; dose 6.25 mg kg-1 per day
  %ILS (group mean increase in lifespan): 34%
  MST (mean survival time ± s.d.): 26.4 ± 3.4 days
  Per cent toxicity (mice with premature death): 0%
[1]; dose 12.5 mg kg-1 per day
  %ILS (group mean increase in lifespan): 34%
  Per cent cures (mice alive 60 days after inoculation): 0%
  Per cent toxicity (mice with premature death): 0%
[1]; dose 25 mg kg-1 per day
  %ILS (group mean increase in lifespan): 96%
  MST (mean survival time ± s.d.): 38.6 ± 4.8 days
  Per cent cures (mice alive 60 days after inoculation): 0%
  Per cent toxicity (mice with premature death): 0%
[1]; i.p. once daily for 5 consecutive days
  Optimal dose: 25 mg/kg/day
[2]
  IC50: 3.4 ng/mL (≈ 3.98 nM)
[3]
  Response rate: 30%
[4]
  MTD (q.d. days 1-5): 25 mg kg-1 per day
[5]
  AUC: 42.53 ig per h ml-1
  AUC value (rounded): 43 jg h-1 ml-1
  Cmax: 14.13 ig ml-1
  Cmax (rounded): 14 jg ml-1
[6]
  Response rate: 48%
[7]
  Tmax: 1.5 h
  half-life: 2.9 h
[8]
  IC50: 9.9 ng/mL (≈ 11.6 nM)
[9]
  IC50: 2.7 ng/mL (≈ 3.16 nM)
[10]
  Tumour weight inhibition (TWI) when untreated mice had a mean tumour mass of 1 g: 47%
[10]; [14]
  Delay (1.0 g): delay to reach mean tumour mass = 1.0 g, compared with untreated: 0.4 days
  Per cent cures (mice with no palpable tumours, day 60): 0%
  Per cent toxicity: 0%
  TWI (per cent tumour weight inhibition when untreated control mean = 1.0 g): 22%
[10]; [15]
  Days (1.0 g): days to reach mean tumour mass = 1.0 g ± s.d.: 12.6+ 1.0 days
  Delay (1.0 g): delay to reach mean tumour mass = 1.0 g, compared with untreated: 0.6 days
  Per cent cures (mice with no palpable tumours, day 60): 0%
  Per cent toxicity: 0%
  TWI (per cent tumour weight inhibition when untreated control mean = 1.0 g): 40%
[10]; [16]
  Delay (1.0 g): delay to reach mean tumour mass = 1.0 g, compared with untreated: 0.9 days
  Per cent cures (mice with no palpable tumours, day 60): 0%
  Per cent toxicity: 30%
  TWI (per cent tumour weight inhibition when untreated control mean = 1.0 g): 47%
[10]; paclitaxel at a non-toxic dose
  Delay in solid tumour growth to 1 g: 0.6 days
[11]; administered on days 1-5 after inoculation, nude mice
  Optimal dose: 12.5 mg kg-1 per dose
[11]; analogues optimally, paclitaxel at non-toxic doses
  Tumour weight inhibition (TWI) when untreated mice had a mean tumour mass of 0.5 g: 80%
[11]; [17]
  Delay (1.0 g) (footnote: delay to reach mean tumour mass = 0.5 g, compared with untreated): 1.4 days
  Per cent cures (mice with no palpable tumours, day 60): 0%
  Per cent toxicity: 0%
  TWI (per cent tumour weight inhibition when untreated control mean = 0.5 g): 42%
[11]; [18]
  Delay (1.0 g) (footnote: delay to reach mean tumour mass = 0.5 g, compared with untreated): 13.4 days
  Per cent cures (mice with no palpable tumours, day 60): 10%
  Per cent toxicity: 0%
  TWI (per cent tumour weight inhibition when untreated control mean = 0.5 g): 80%
[11]; [19]
  Delay (1.0 g) (footnote: delay to reach mean tumour mass = 0.5 g, compared with untreated): 19.1 days
  Per cent cures (mice with no palpable tumours, day 60): 30%
  Per cent toxicity: 40%
  TWI (per cent tumour weight inhibition when untreated control mean = 0.5 g): 100%
[11]; [20]
  Cure rate: 10%
  Delay in tumour growth compared with untreated controls: 13.4 days
[12]
  IC50: 4.9 ng/mL (≈ 5.74 nM)
